Source: ChEMBL document CHEMBL1201862, “PubChem BioAssay data set” (2004)
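Five concentrations, 48 hours, 96-well plates. Abbreviation: GI50, concentration required for 50% inhibition of growth.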 Calls of active or inactive are those of the source. No stated cut-off is given here; in the data, active = GI50 up to about 1.1 µM and inactive = higher.

Tests used:
Assay in all cases: growth of human tumour cells (NCI), 48 h
HOP-18 = test system: HOP-18
DMS-273 = test system: DMS-273
786-0 = test system: 786-0
HOP-92 = test system: HOP-92
SF-539 = test system: SF-539
HL-60 = test system: HL-60
HCT-116 = test system: HCT-116
SNB-75 = test system: SNB-75
A498 = test system: A498
DLD-1 = test system: DLD-1
TK-10 = test system: TK-10
KM12 = test system: KM12
SF-268 = test system: SF-268
UACC-257 = test system: UACC-257
NCI-H522 = test system: NCI-H522
SW-620 = test system: SW-620
OVCAR-8 = test system: OVCAR-8
ACHN = test system: ACHN
COLO 205 = test system: COLO 205
CAKI-1 = test system: CAKI-1
SK-MEL-5 = test system: SK-MEL-5
SK-MEL-28 = test system: SK-MEL-28
DMS-114 = test system: DMS-114
SNB-19 = test system: SNB-19
UACC-62 = test system: UACC-62
OVCAR-5 = test system: OVCAR-5
M14 = test system: M14
NCI-H226 = test system: NCI-H226
M19-MEL = test system: M19-MEL
Malme-3M = test system: Malme-3M
NCI-H460 = test system: NCI-H460
U-251 = test system: U-251
MOLT-4 = test system: MOLT-4
SR = test system: SR
UO-31 = test system: UO-31
A549 = test system: A549
CCRF-CEM = test system: CCRF-CEM
KM-20L2 = test system: KM-20L2
HCT-15 = test system: HCT-15
RXF 393 = test system: RXF 393
LOX IMVI = test system: LOX IMVI
OVCAR-4 = test system: OVCAR-4
HCC 2998 = test system: HCC 2998
RPMI-8226 = test system: RPMI-8226
SNB-78 = test system: SNB-78
RXF 631 = test system: RXF 631
LXFL 529 = test system: LXFL 529
HT-29 = test system: HT-29
IGROV-1 = test system: IGROV-1
SF-295 = test system: SF-295
HOP-62 = test system: HOP-62
EKVX = test system: EKVX
SK-OV-3 = test system: SK-OV-3
OVCAR-3 = test system: OVCAR-3
SN12C = test system: SN12C
K562 = test system: K562
NCI-H23 = test system: NCI-H23
SK-MEL-2 = test system: SK-MEL-2

## C[C@@H]1CC(=O)C2CCCC1C2=O (stereo partly drawn)
HOP-18
  GI50: > 100 µM (inactive)
DMS-273
  GI50: > 100 µM (inactive)
786-0
  GI50: > 100 µM (inactive)
HOP-92
  GI50: > 100 µM (inactive)
SF-539
  GI50: > 100 µM (inactive)
HL-60
  GI50: > 100 µM (inactive)
HCT-116
  GI50: > 100 µM (inactive)
SNB-75
  GI50: > 100 µM (inactive)
A498
  GI50: > 100 µM (inactive)
DLD-1
  GI50: > 100 µM (inactive)
TK-10
  GI50: > 100 µM (inactive)
KM12
  GI50: > 100 µM (inactive)
SF-268
  GI50: > 100 µM (inactive)
UACC-257
  GI50: > 100 µM (inactive)
NCI-H522
  GI50: > 100 µM (inactive)
SW-620
  GI50: > 100 µM (inactive)
OVCAR-8
  GI50: > 100 µM (inactive)
ACHN
  GI50: > 100 µM (inactive)
COLO 205
  GI50: 45.7 µM (inactive)
CAKI-1
  GI50: > 100 µM (inactive)
SK-MEL-5
  GI50: > 100 µM (inactive)
SK-MEL-28
  GI50: > 100 µM (inactive)
DMS-114
  GI50: > 100 µM (inactive)
SNB-19
  GI50: > 100 µM (inactive)
UACC-62
  GI50: > 100 µM (inactive)
OVCAR-5
  GI50: > 100 µM (inactive)
M14
  GI50: > 100 µM (inactive)
NCI-H226
  GI50: > 100 µM (inactive)
M19-MEL
  GI50: > 100 µM (inactive)
Malme-3M
  GI50: > 100 µM (inactive)
NCI-H460
  GI50: > 100 µM (inactive)
U-251
  GI50: > 100 µM (inactive)
MOLT-4
  GI50: > 100 µM (inactive)
SR
  GI50: > 100 µM (inactive)
UO-31
  GI50: > 100 µM (inactive)
A549
  GI50: > 100 µM (inactive)
CCRF-CEM
  GI50: > 100 µM (inactive)
KM-20L2
  GI50: > 100 µM (inactive)
HCT-15
  GI50: > 100 µM
RXF 393
  GI50: > 100 µM (inactive)
LOX IMVI
  GI50: > 100 µM (inactive)
OVCAR-4
  GI50: > 100 µM (inactive)
HCC 2998
  GI50: > 100 µM (inactive)
RPMI-8226
  GI50: > 100 µM (inactive)
SNB-78
  GI50: > 100 µM (inactive)
RXF 631
  GI50: > 100 µM (inactive)
LXFL 529
  GI50: > 100 µM (inactive)
HT-29
  GI50: > 100 µM (inactive)
IGROV-1
  GI50: > 100 µM (inactive)
SF-295
  GI50: > 100 µM (inactive)
HOP-62
  GI50: > 100 µM (inactive)
EKVX
  GI50: > 100 µM (inactive)
SK-OV-3
  GI50: > 100 µM (inactive)
OVCAR-3
  GI50: > 100 µM (inactive)
SN12C
  GI50: > 100 µM (inactive)

## O=C(/C=C\c1cccc2ccccc12)c1ccc(Cl)cc1Cl
HOP-18
  GI50: 22.8 µM (inactive)
DMS-273
  GI50: 18.8 µM (inactive)
K562
  GI50: 18.9 µM (inactive)
786-0
  GI50: 18.7 µM (inactive)
SF-539
  GI50: 25.8 µM (inactive)
HL-60
  GI50: 18.2 µM (inactive)
HCT-116
  GI50: 18.7 µM (inactive)
SNB-75
  GI50: > 100 µM (inactive)
A498
  GI50: > 100 µM (inactive)
DLD-1
  GI50: 22 µM (inactive)
TK-10
  GI50: 97.1 µM (inactive)
KM12
  GI50: 17.2 µM (inactive)
SF-268
  GI50: 19.6 µM (inactive)
UACC-257
  GI50: 27 µM (inactive)
NCI-H522
  GI50: 19.2 µM (inactive)
SW-620
  GI50: 20 µM (inactive)
OVCAR-8
  GI50: 18.7 µM (inactive)
ACHN
  GI50: 18.6 µM (inactive)
COLO 205
  GI50: 22.4 µM (inactive)
CAKI-1
  GI50: 47.5 µM (inactive)
SK-MEL-5
  GI50: 36.7 µM (inactive)
SK-MEL-28
  GI50: 18.5 µM (inactive)
DMS-114
  GI50: 14.8 µM (inactive)
SNB-19
  GI50: 28.8 µM (inactive)
UACC-62
  GI50: 16.7 µM (inactive)
OVCAR-5
  GI50: 24.4 µM (inactive)
M14
  GI50: 19.4 µM (inactive)
NCI-H226
  GI50: > 100 µM (inactive)
M19-MEL
  GI50: 19.1 µM (inactive)
Malme-3M
  GI50: 26.7 µM (inactive)
NCI-H23
  GI50: 40.6 µM (inactive)
NCI-H460
  GI50: 23.4 µM (inactive)
U-251
  GI50: 16.4 µM (inactive)
MOLT-4
  GI50: 28.5 µM (inactive)
UO-31
  GI50: 53 µM (inactive)
A549
  GI50: 62.1 µM (inactive)
CCRF-CEM
  GI50: 17.3 µM (inactive)
KM-20L2
  GI50: 31 µM (inactive)
HCT-15
  GI50: 13.7 µM
OVCAR-4
  GI50: 43.6 µM (inactive)
HCC 2998
  GI50: 32.4 µM (inactive)
RPMI-8226
  GI50: 18 µM (inactive)
SNB-78
  GI50: 20.3 µM (inactive)
RXF 631
  GI50: 23.8 µM (inactive)
LXFL 529
  GI50: 18.3 µM (inactive)
HT-29
  GI50: 17.9 µM (inactive)
IGROV-1
  GI50: 39.7 µM (inactive)
SF-295
  GI50: 20.5 µM (inactive)
HOP-62
  GI50: > 100 µM (inactive)
EKVX
  GI50: 36.5 µM (inactive)
SK-OV-3
  GI50: > 100 µM (inactive)
OVCAR-3
  GI50: 20.2 µM (inactive)
SN12C
  GI50: > 100 µM (inactive)

## Cc1cc(N(CCC#N)S(=O)(=O)c2ccccc2)ccc1C=O
SK-MEL-2
  GI50: > 100 µM (inactive)
HOP-18
  GI50: > 100 µM (inactive)
DMS-273
  GI50: > 100 µM (inactive)
K562
  GI50: > 100 µM (inactive)
786-0
  GI50: > 100 µM (inactive)
SF-539
  GI50: > 100 µM (inactive)
HL-60
  GI50: > 100 µM (inactive)
HCT-116
  GI50: > 100 µM (inactive)
SNB-75
  GI50: > 100 µM (inactive)
A498
  GI50: > 100 µM (inactive)
DLD-1
  GI50: > 100 µM (inactive)
KM12
  GI50: > 100 µM (inactive)
SF-268
  GI50: > 100 µM (inactive)
UACC-257
  GI50: > 100 µM (inactive)
NCI-H522
  GI50: > 100 µM (inactive)
SW-620
  GI50: > 100 µM (inactive)
OVCAR-8
  GI50: > 100 µM (inactive)
ACHN
  GI50: > 100 µM (inactive)
COLO 205
  GI50: > 100 µM (inactive)
CAKI-1
  GI50: > 100 µM (inactive)
SK-MEL-5
  GI50: > 100 µM (inactive)
SK-MEL-28
  GI50: > 100 µM (inactive)
DMS-114
  GI50: > 100 µM (inactive)
SNB-19
  GI50: > 100 µM (inactive)
UACC-62
  GI50: > 100 µM (inactive)
OVCAR-5
  GI50: > 100 µM (inactive)
M14
  GI50: > 100 µM (inactive)
NCI-H226
  GI50: > 100 µM (inactive)
Malme-3M
  GI50: > 100 µM (inactive)
NCI-H23
  GI50: > 100 µM (inactive)
NCI-H460
  GI50: > 100 µM (inactive)
U-251
  GI50: > 100 µM (inactive)
MOLT-4
  GI50: > 100 µM (inactive)
SR
  GI50: > 100 µM (inactive)
UO-31
  GI50: > 100 µM (inactive)
A549
  GI50: > 100 µM (inactive)
CCRF-CEM
  GI50: > 100 µM (inactive)
KM-20L2
  GI50: > 100 µM (inactive)
HCT-15
  GI50: > 100 µM
RXF 393
  GI50: > 100 µM (inactive)
LOX IMVI
  GI50: > 100 µM (inactive)
OVCAR-4
  GI50: > 100 µM (inactive)
HCC 2998
  GI50: > 100 µM (inactive)
RPMI-8226
  GI50: > 100 µM (inactive)
SNB-78
  GI50: > 100 µM (inactive)
RXF 631
  GI50: > 100 µM (inactive)
LXFL 529
  GI50: > 100 µM (inactive)
HT-29
  GI50: > 100 µM (inactive)
IGROV-1
  GI50: > 100 µM (inactive)
SF-295
  GI50: > 100 µM (inactive)
HOP-62
  GI50: > 100 µM (inactive)
EKVX
  GI50: > 100 µM (inactive)
SK-OV-3
  GI50: > 100 µM (inactive)
OVCAR-3
  GI50: > 100 µM (inactive)
SN12C
  GI50: > 100 µM (inactive)
